Laboratory results taken from ChEMBL document CHEMBL4825673, “Total and Semisyntheses of Polymyxin Analogues with 2-Thr or 10-Thr Modifications to Decipher the Structure-Activity Relationship and Improve the Antibacterial Activity” (J Med Chem, 2021).
In brackets after ≈: the same amount, converted by molar mass. Positions of bridges follow the written chain, without caps; N, C: chain ends. Non-standard residues stand in square brackets, D forms with d. Residues, ends and D or L forms follow the SMILES beside them. *: point of attachment. Benzoyl(4-OPh) = O=C(c1ccc(Oc2ccccc2)cc1)*; Dab = NCC[C@H](N)C(=O)O

system: Pseudomonas aeruginosa; assay: Antibacterial activity against Pseudomonas aeruginosa PAO1 assessed as inhibition of bacterial growth incubated for 24 hrs by broth microdilution method; type: functional; conditions: read-out: MIC100

SMILES	MIC
CC(C)CCCCC(=O)N[C@@H](CCN)C(=O)N[C@H](C(=O)N[C@@H](CCN)C(=O)N[C@H]1CCNC(=O)[C@H]([C@@H](C)O)NC(=O)[C@H](CCN)NC(=O)[C@H](CCN)NC(=O)[C@H](CC(C)C)NC(=O)[C@@H](Cc2ccccc2)NC(=O)[C@H](CCN)NC1=O)[C@@H](C)OC(=O)[C@@H](N)CC(=O)O	2 µg/mL (≈ 1.53 µM)
CCCCCCCC(=O)N[C@@H](CCN)C(=O)N[C@H](C(=O)N[C@@H](CCN)C(=O)N[C@H]1CCNC(=O)[C@H](CCSC)NC(=O)[C@H](CCN)NC(=O)[C@H](CCN)NC(=O)[C@H](CC(C)C)NC(=O)[C@@H](Cc2ccccc2)NC(=O)[C@H](CCN)NC1=O)[C@@H](C)O	4 µg/mL (≈ 3.28 µM)
CC(C)C[C@@H]1NC(=O)[C@@H](Cc2ccccc2)NC(=O)[C@H](CCN)NC(=O)[C@@H](NC(=O)[C@H](CCN)NC(=O)[C@@H](NC(=O)[C@H](CCN)NC(=O)c2ccc(Oc3ccccc3)cc2)[C@@H](C)O)CCNC(=O)[C@H]([C@@H](C)O)NC(=O)[C@H](CCN)NC(=O)[C@H](CCN)NC1=O ({Benzoyl(4-OPh)}-[Dab]T[Dab][Dab][Dab][dF]L[Dab][Dab]T; lactam 4-C)	4 µg/mL (≈ 3.18 µM)
CC[C@H](C)CCCCC(=O)N[C@@H](CCN)C(=O)N[C@H](C(=O)N[C@@H](CCN)C(=O)N[C@H]1CCNC(=O)[C@H]([C@@H](C)O)NC(=O)[C@H](CCN)NC(=O)[C@H](CCN)NC(=O)[C@H](CC(C)C)NC(=O)[C@@H](Cc2ccccc2)NC(=O)[C@H](CCN)NC1=O)[C@@H](C)OC(=O)[C@@H](N)CCC(=O)O	1 µg/mL (≈ 0.75 µM)
CC[C@H](C)CCCCC(=O)N[C@@H](CCN)C(=O)N[C@H](C(=O)N[C@@H](CCN)C(=O)N[C@H]1CCNC(=O)[C@H]([C@@H](C)O)NC(=O)[C@H](CCN)NC(=O)[C@H](CCN)NC(=O)[C@H](CC(C)C)NC(=O)[C@@H](Cc2ccccc2)NC(=O)[C@H](CCN)NC1=O)[C@@H](C)OC(=O)[C@@H](N)Cc1c[nH]cn1	2 µg/mL (≈ 1.49 µM)
CC[C@H](C)CCCCC(=O)N[C@@H](CCN)C(=O)N[C@H](C(=O)N[C@@H](CCN)C(=O)N[C@H]1CCNC(=O)[C@H]([C@@H](C)O)NC(=O)[C@H](CCN)NC(=O)[C@H](CCN)NC(=O)[C@H](CC(C)C)NC(=O)[C@@H](Cc2ccccc2)NC(=O)[C@H](CCN)NC1=O)[C@@H](C)OC(=O)[C@@H](N)CCSC	2 µg/mL (≈ 1.5 µM)
CC(NCC[C@H](NC(=O)[C@H](CCN)NC(=O)CCCCC(C)C)C(=O)N[C@@H](CCN)C(=O)N[C@H]1CCNC(=O)[C@H]([C@@H](C)O)NC(=O)[C@H](CCN)NC(=O)[C@H](CCN)NC(=O)[C@H](CC(C)C)NC(=O)[C@@H](Cc2ccccc2)NC(=O)[C@H](CCN)NC1=O)=C1C(=O)CC(C)(C)CC1=O	8 µg/mL (≈ 5.91 µM)
CC[C@H](C)CCCCC(=O)N[C@@H](CCN)C(=O)N[C@H](C(=O)N[C@@H](CCN)C(=O)N[C@H]1CCNC(=O)[C@H]([C@@H](C)OC(=O)[C@@H]2CCCN2)NC(=O)[C@H](CCN)NC(=O)[C@H](CCN)NC(=O)[C@H](CC(C)C)NC(=O)[C@@H](Cc2ccccc2)NC(=O)[C@H](CCN)NC1=O)[C@@H](C)OC(=O)[C@@H]1CCCN1	2 µg/mL (≈ 1.43 µM)
CC[C@H](C)CCCCC(=O)N[C@@H](CCN)C(=O)N[C@H](C(=O)N[C@@H](CCN)C(=O)N[C@H]1CCNC(=O)[C@H]([C@@H](C)O)NC(=O)[C@H](CCN)NC(=O)[C@H](CCN)NC(=O)[C@H](CC(C)C)NC(=O)[C@@H](Cc2ccccc2)NC(=O)[C@H](CCN)NC1=O)[C@@H](C)OC(=O)[C@H](C)N	4 µg/mL (≈ 3.14 µM)
CC(C)CCCCC(=O)N[C@@H](CCN)C(=O)N[C@H](C(=O)N[C@@H](CCN)C(=O)N[C@H]1CCNC(=O)[C@H]([C@@H](C)OC(=O)[C@@H]2CCCN2)NC(=O)[C@H](CCN)NC(=O)[C@H](CCN)NC(=O)[C@H](CC(C)C)NC(=O)[C@@H](Cc2ccccc2)NC(=O)[C@H](CCN)NC1=O)[C@@H](C)OC(=O)[C@@H]1CCCN1	2 µg/mL (≈ 1.45 µM)
CC[C@H](C)CCCCC(=O)N[C@@H](CCN)C(=O)N[C@H](C(=O)N[C@@H](CCN)C(=O)N[C@H]1CCNC(=O)[C@H]([C@@H](C)OC(=O)CN)NC(=O)[C@H](CCN)NC(=O)[C@H](CCN)NC(=O)[C@H](CC(C)C)NC(=O)[C@@H](Cc2ccccc2)NC(=O)[C@H](CCN)NC1=O)[C@@H](C)OC(=O)CN	2 µg/mL (≈ 1.52 µM)
